In patent US9050345B2, “Pyrrolotriazines as potassium ion channel inhibitors” (BRISTOL-MYERS SQUIBB COMPANY, priority 2013, dated 2015):

These molecules were tested against T1, human KV 1.5 (IKur) (Homo sapiens, UniProt P22460) (assay: block of IKur current in patch clamped L-929 cells expressing human Kv1.5). Settings: 0.3 μM; patch clamped mammalian L-929 cells stably expressing human Kv1.5.
T1 construct: expressed in transfected cells
Type: cell-based

T1 sequence (P22460 whole entry): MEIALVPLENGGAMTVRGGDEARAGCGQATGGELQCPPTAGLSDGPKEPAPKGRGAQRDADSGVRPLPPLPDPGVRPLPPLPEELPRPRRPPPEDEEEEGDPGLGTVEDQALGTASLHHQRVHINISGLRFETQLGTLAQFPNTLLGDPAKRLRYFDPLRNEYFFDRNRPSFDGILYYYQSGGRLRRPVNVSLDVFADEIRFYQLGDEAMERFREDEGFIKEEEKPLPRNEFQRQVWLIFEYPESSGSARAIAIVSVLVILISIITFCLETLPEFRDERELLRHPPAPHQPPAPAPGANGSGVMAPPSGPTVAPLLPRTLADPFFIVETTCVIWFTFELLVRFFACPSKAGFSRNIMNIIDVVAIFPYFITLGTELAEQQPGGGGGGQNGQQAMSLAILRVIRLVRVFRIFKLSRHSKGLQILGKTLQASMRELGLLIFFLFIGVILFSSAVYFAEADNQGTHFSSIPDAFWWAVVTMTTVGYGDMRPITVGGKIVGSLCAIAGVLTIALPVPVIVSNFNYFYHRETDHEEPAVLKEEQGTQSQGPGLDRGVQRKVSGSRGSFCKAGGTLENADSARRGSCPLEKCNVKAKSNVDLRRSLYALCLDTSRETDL

Compound	KV1_5% Inh L929 @0.3 μM [%]
CC(Nc1nc(-c2cncc(S(N)(=O)=O)c2)nn2ccc(-c3ccccc3)c12)c1ccc(F)cc1 (centres unmarked) [Example 77, 5-(4-(1-(4-fluorophenyl)ethylamino)-5-phenylpyrrolo[1,2-f] [1,2,4]triazin-2-yl)pyridine-3-sulfonamide]	95.70
O=C(NCC(O)CO)c1cncc(-c2nc(NCc3ccccc3)c3c(-c4ccccc4)ccn3n2)c1 (centres unmarked) [Example 97, 5-(4-(benzylamino)-5-phenylpyrrolo [1,2-f][1,2,4]triazin-2-yl)-N-(2,3-dihydroxypropyl) nicotinamide]	96.86

Same assay, conditions: L929, 0.3 μM; patch clamped mammalian L-929 cells stably expressing human Kv1.5; read-out: KV1_5% Inh L929 @0.3 μM

Compound	inhibition at 0.3 µM [%]
CS(=O)(=O)Nc1cncc(-c2nc(NCC3CCCCC3)c3c(-c4ccccc4)ccn3n2)c1 [Example 75, N-(5-(4-(cyclohexylmethylamino)-5-phenylpyrrolo[1,2-f] [1,2,4]triazin-2-yl)pyridin-3-yl)methanesulfonamide]	90.9
CC(Nc1nc(-c2cncc(S(N)(=O)=O)c2)nn2ccc(-c3ccccc3)c12)c1ccc(F)cc1 (centres unmarked) [Example 76, 5-(4-(1-(4-fluorophenyl)ethylamino)-5-phenylpyrrolo[1,2-f] [1,2,4]triazin-2-yl) pyridine-3-sulfonamide]	93.8
O=C(O)CC(=O)Nc1cncc(-c2nc(NCc3ccccc3)c3c(-c4ccccc4)ccn3n2)c1 [Example 78, 3-(5-(4-(benzylamino)-5-phenylpyrrolo [1,2-f][1,2,4]triazin-2-yl)pyridin-3-ylamino)-3-oxopropanoic acid]	22.9
NS(=O)(=O)c1cncc(-c2nc(NCc3c(F)cccc3F)c3c(-c4ccccc4)ccn3n2)c1 [Example 79, 5-(4-(2,6-difluorobenzylamino)-5-phenylpyrrolo [1,2-f][1,2,4]triazin-2-yl)pyridine-3-sulfonamide]	96
N#Cc1ccc(-c2nc(NCc3ccccc3)c3c(-c4ccccc4)ccn3n2)cn1 [Example 80, 5-(4-(-benzylamino)-5-phenylpyrrolo [1,2-f][1,2,4]triazin-2-yl) picolinonitrile]	96.9
NC(=O)c1ccc(-c2nc(NCc3ccccc3)c3c(-c4ccccc4)ccn3n2)cn1 [Example 81, 5-(4-(benzylamino)-5-phenylpyrrolo [1,2-f][1,2,4]triazin-2-yl) picolinamide]	97
O=C(O)c1ccc(-c2nc(NCc3ccccc3)c3c(-c4ccccc4)ccn3n2)cn1 [Example 82, 5-(4-(benzylamino)-5-phenylpyrrolo [1,2-f][1,2,4]triazin-2-yl) picolinic acid]	17.6
NS(=O)(=O)c1cncc(-c2nc(NC(c3ccccc3)C(F)(F)F)c3c(-c4ccccc4)ccn3n2)c1 (centres unmarked) [Example 83, 5-(5-phenyl-4-(2,2,2-trifluoro-1-phenylethylamino)pyrrolo [1,2-f][1,2,4]triazin-2-yl)pyridine-3-sulfonamide]	89.8
O=C(c1cncc(-c2nc(NCc3ccccc3)c3c(-c4ccccc4)ccn3n2)c1)N1CCOCC1 [Example 84, (5-(4-(benzylamino)-5-phenylpyrrolo [1,2-f][1,2,4]triazin-2-yl)pyridin-3-yl)(morpholino) methanone]	85.9
COCCNC(=O)c1cncc(-c2nc(NCc3ccccc3)c3c(-c4ccccc4)ccn3n2)c1 [Example 85, 5-(4-(benzylamino)-5-phenylpyrrolo [1,2-f][1,2,4]triazin-2-yl)-N-(2-methoxyethyl) nicotinamide]	96.3
COC(=O)c1cccc(-c2nc(NCc3ccccn3)c3c(-c4ccccc4)ccn3n2)c1 [Example 86, methyl 3-(5-phenyl-4-(pyridin-2-ylmethylamino)pyrrolo[1,2-f][1,2,4]triazin-2-yl)benzoate]	86.3
O=C(O)c1cccc(-c2nc(NCc3ccccn3)c3c(-c4ccccc4)ccn3n2)c1 [Example 87, 3-(5-phenyl-4-(pyridin-2-ylmethylamino)pyrrolo [1,2-f][1,2,4]triazin-2-yl)benzoic acid]	91
N#Cc1cncc(-c2nc(NC(c3ccccc3)C(F)(F)F)c3c(-c4ccccc4)ccn3n2)c1 (centres unmarked) [Example 88, 5-(5-phenyl-4-(-2-,2,2-trifluoro-1-phenylethylamino)pyrrolo [1,2-f][1,2,4]triazin-2-yl)nicotinonitrile]	27.2
CCOC(=O)CCNC(=O)c1cncc(-c2nc(NCc3ccccc3)c3c(-c4ccccc4)ccn3n2)c1 [Example 89, ethyl 3-(5-(4-(benzylamino)-5-phenylpyrrolo [1,2-f][1,2,4]triazin-2-yl)nicotinamido) propanoate]	97
CC1(C)OCC(CNC(=O)c2cncc(-c3nc(NCc4ccccc4)c4c(-c5ccccc5)ccn4n3)c2)O1 (centres unmarked) [Example 90, 5-(4-(benzylamino)-5-phenylpyrrolo [1,2-f][1,2,4]triazin-2-yl)-N-((2,2-dimethyl-1,3-dioxolan-4-yl)methyl)nicotinamide]	96
CC(=O)NS(=O)(=O)c1cncc(-c2nc(NCc3ccccc3)c3c(-c4ccccc4)ccn3n2)c1 [Example 91, N-(5-(4-(benzylamino)-5-phenylpyrrolo [1,2-f][1,2,4]triazin-2-yl)pyridin-3-ylsulfonyl)acetamide]	61.7
N#Cc1cc(-c2nc(NCc3ccccc3)c3c(-c4ccccc4)ccn3n2)ccn1 [Example 92, 4-(4-(benzylamino)-5-phenylpyrrolo [1,2-f][1,2,4]triazin-2-yl) picolinonitrile]	88.2
COc1ncc(-c2nc(NCc3ccccc3)c3c(-c4ccccc4)ccn3n2)cc1S(=O)(=O)NC(C)(C)C [Example 93, 5-(4-(benzylamino)-5-phenylpyrrolo [1,2-f][1,2,4]triazin-2-yl)-N-tert-butyl-2-methoxypyridine-3-sulfonamide]	41
COc1ncc(-c2nc(NCc3ccccc3)c3c(-c4ccccc4)ccn3n2)cc1S(N)(=O)=O [Example 94, 5-(4-(benzylamino)-5-phenylpyrrolo [1,2-f][1,2,4]triazin-2-yl)-2-methoxypyridine-3-sulfonamide]	95.8
O=C(NCC(O)CO)c1cncc(-c2nc(NCc3ccccc3)c3c(-c4ccccc4)ccn3n2)c1 (centres unmarked) [Example 96, 5-(4-(benzylamino)-5-phenylpyrrolo [1,2-f][1,2,4]triazin-2-yl)-N-(2,3-dihydroxypropyl) nicotinamide]	95.7
O=C(O)CCNC(=O)c1cncc(-c2nc(NCc3ccccc3)c3c(-c4ccccc4)ccn3n2)c1 [Example 98, 3-(5-(4-(benzylamino)-5-phenylpyrrolo [1,2-f][1,2,4]triazin-2-yl)nicotinamido) propanoic acid]	55.3
O=C(O)/C=C/c1cncc(-c2nc(NCc3ccccc3)c3c(-c4ccccc4)ccn3n2)c1 [Example 99, (E)-3-(5-(4-(benzylamino)-5-phenylpyrrolo [1,2-f][1,2,4]triazin-2-yl)pyridin-3-yl)acrylic acid]	92.2
C1=C(c2nc(NCc3ccccc3)c3c(-c4ccccc4)ccn3n2)CCOC1 [Example 100, N-benzyl-2-(3,6-dihydro-2H-pyran-4-yl)-5-phenylpyrrolo [1,2-f][1,2,4] triazin-4-amine]	96.9
NS(=O)(=O)c1cncc(-c2nc(NCC3CCCCO3)c3c(-c4ccccc4)ccn3n2)c1 (centres unmarked) [Example 101, 5-(5-phenyl-4-((tetrahydro-2H-pyran-2-yl)methylamino)pyrrolo [1,2-f][1,2,4]triazin-2-yl)pyridine-3-sulfonamide]	93.6
